# Reference: patent US7683168B2, “Compositions of novel opioid compounds and method of use thereof” (priority 2005, dated 2010)
# Assays:
# δ opioid receptor = molecular target: T1, δ opioid receptor (Rattus norvegicus, UniProt P33533); test: radioligand binding, δ opioid receptor, rat brain membranes; conditions: cell marked (rat), tritium-labeled Deltorphin II
# T1 construct: tissue Pel-Freeze Biological Inc. (Rogers, Ark.); host or cells: rat whole brain
# μ opioid receptor = molecular target: T2, μ opioid receptor (Rattus norvegicus, UniProt P33535); test: radioligand binding, μ opioid receptor, rat brain membranes; conditions: cell marked (rat), tritium-labeled DAMGO
# T2 construct: tissue Pel-Freeze Biological Inc. (Rogers, Ark.); host or cells: rat whole brain
# T2 sequence (P33535 whole entry): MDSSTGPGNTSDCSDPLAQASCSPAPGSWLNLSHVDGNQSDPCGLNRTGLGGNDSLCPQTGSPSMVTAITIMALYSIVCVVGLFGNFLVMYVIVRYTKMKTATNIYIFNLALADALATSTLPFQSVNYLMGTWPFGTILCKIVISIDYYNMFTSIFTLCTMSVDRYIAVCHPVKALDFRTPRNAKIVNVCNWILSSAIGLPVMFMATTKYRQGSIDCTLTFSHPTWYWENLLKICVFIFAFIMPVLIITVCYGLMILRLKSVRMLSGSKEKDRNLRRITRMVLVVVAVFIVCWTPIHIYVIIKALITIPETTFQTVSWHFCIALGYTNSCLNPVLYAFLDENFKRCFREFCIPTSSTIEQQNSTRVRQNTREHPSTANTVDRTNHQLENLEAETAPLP
# κ opioid receptor = molecular target: T3, κ opioid receptor (Cavia porcellus, UniProt P41144); test: radioligand binding, κ opioid receptor, guinea pig cerebellum; conditions: tritium-labeled U69593
# T3 construct: tissue Pel-Freeze Biological Inc. (Rogers, Ark.); host or cells: guinea pig cerebellum
# T3 sequence (P41144 whole entry): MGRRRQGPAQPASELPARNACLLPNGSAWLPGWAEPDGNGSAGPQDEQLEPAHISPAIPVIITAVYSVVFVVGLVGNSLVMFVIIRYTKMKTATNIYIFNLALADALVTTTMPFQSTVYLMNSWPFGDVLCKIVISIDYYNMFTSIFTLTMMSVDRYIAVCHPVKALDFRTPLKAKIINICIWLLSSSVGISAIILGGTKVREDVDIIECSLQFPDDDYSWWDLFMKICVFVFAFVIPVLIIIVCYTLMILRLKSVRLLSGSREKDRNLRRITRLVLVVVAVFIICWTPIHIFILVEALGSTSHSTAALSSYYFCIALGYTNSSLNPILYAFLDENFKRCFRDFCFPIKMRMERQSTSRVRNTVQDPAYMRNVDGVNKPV
# mouse vas deferens = test: electrically stimulated mouse vas deferens (MVD) ED50; assay type: cell-based; conditions: ED50, inhibition of electrically induced contractions
# [1] = tested on: seizure-like convulsions in mice; test: mouse seizure-like convulsions; assay type: in vivo; conditions: 10 mg/kg IV
# Summary of the method: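 Male CD-1 mice (Charles River, Raleigh, N.C.) of 20-25 g were dosed and watched for one hour to detect seizure-like convulsions mediated by central delta receptors. An event was counted when clonic or tonic/clonic muscle movements involved the whole body, usually followed by brief catalepsy, judged by no attempt to withdraw front paws from a bar 2-3 inches above the floor.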
# [2] = tested on: tail-pinch antinociception in mice; conditions: in vivo; for mouse TP % MPE: iv, 10 mg/kg
# rat analgesia = assay type: in vivo
# guinea pig ileum = test: electrically stimulated guinea pig ileum (GPI) ED50; assay type: cell-based; conditions: Cavia porcellus; ED50, inhibition of electrically induced contractions
# Procedure: Further the compounds of formula (1) were evaluated for in vitro opioid receptor activity in various receptor systems, including mouse vas deferens (Mouse Vas Deferens ED50), and guinea pig ileum (Guinea Pig Ileum ED50). The assay procedures used for such determinations of receptor activity are set out below.
# Intact ileums (about 3 cm length) were removed from guinea pig and suspended with 1 g of tension in a bath chamber as described for the vasa deferentia. The ileums were stimulated with electrical square-wave pulses of 0.1-Hz, 1 msec pulse duration at supramaximal voltage.
# The ED50 values were extrapolated from curves showing the dose concentration plotted against the response (J. A. H. Lord, A. A. Waterfield, J. Hughes, H. W. Kosterlitz, Nature 267, 495, (1977)).
# T1 sequence (P33533 whole entry): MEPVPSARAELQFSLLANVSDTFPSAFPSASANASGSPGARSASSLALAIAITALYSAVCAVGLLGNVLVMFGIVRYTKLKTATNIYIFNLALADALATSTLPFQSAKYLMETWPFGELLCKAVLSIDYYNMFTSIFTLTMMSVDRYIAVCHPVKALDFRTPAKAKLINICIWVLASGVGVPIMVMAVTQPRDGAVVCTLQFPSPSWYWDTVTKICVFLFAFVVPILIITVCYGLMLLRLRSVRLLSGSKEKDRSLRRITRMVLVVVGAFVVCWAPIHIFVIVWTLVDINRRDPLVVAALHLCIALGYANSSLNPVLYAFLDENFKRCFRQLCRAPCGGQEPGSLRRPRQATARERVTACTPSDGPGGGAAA
Compound,Ki (δ opioid receptor),Ki (μ opioid receptor),Ki (κ opioid receptor),EC50 (mouse vas deferens),Seiz. [1],mouse TP % MPE [2],rat analg. (rat analgesia),EC50 (guinea pig ileum),maximum time of response in tail-pinch assay ([2]; mouse)
C=CCN1C[C@H](C)N(C(c2cccc(O)c2)c2cccc(C(=O)N3CCCN(C)CC3)c2)C[C@H]1C (stereo partly drawn),5.45 nM,1.58 nM,1.93 nM,26.3 nM,0%,0% 10 mg/kg IV (mouse TP- 54% MPE; no rat analg.),no rat analg.,,
CCOC(=O)CCN1CCCN(C(=O)c2cccc([C@H](c3cccc(O)c3)N3C[C@@H](C)N(Cc4ccccc4)C[C@@H]3C)c2)CC1,1.2 nM,0.75 nM,2.98 nM,1.5 nM,80% 10 mg/kg IV (42% MPE mouse TP),80% 10 mg/kg IV (42% MPE mouse TP),,836 nM,
C=CCN1C[C@H](C)N([C@@H](c2cccc(O)c2)c2cccc(C(=O)N3CCCN(CCCCC(=O)OCC)CC3)c2)C[C@H]1C,2.9 nM,1.25 nM,0.6 nM,43.7 nM,0% 10 mg/kg IV,,,231 nM,
"CN1CC[C@]23c4c5ccc(O)c4O[C@H]2[C@@H](O)C=C[C@H]3[C@H]1C5 [morphine, reference compound]",,,,,,,,,20 s
